Assays:
MRGPRB4+ fibres = experiment: Two-photon in vivo calcium imaging (GCaMP3.0) of central afferent fibres through a spinal cord laminectomy, chemical stimuli; parameters: species or system mouse
Method: (§1) Mice expressing reporters and/or Cre recombinase targeted to the MrgprB4 locus were generated by homologous recombination in embryonic stem cells, according to standard procedures. Heterozygous neonates from MrgprD-Cre and MrgprB4-Cre mice were injected intraperitoneally with Cre-dependent AAV8 viruses expressing GCaMP3.0 or mGCaMP3.0 or hM3(Gq-coupled) DREADD, and imaged as adults (≧8 weeks old).
(§2) Electrophysiology experiments on ex vivo skin-nerve preparations from adult heterozygous Mrgprb4-EGFPf reporter mice were performed as described in Woodbury, et al. J. Comp. Neurol. 436, 304-323 (2001). For calcium imaging, after a dorsal laminectomy the spinal column was stabilized and filled with imaging solution (see below for details). Imaging was performed using a two-photon laser-scanning microscope (Ultima, Prairie Inc.) using an Olympus 40×0.8 N.A. water immersion objective, at 128×128 pixel resolution with an acquisition rate of 8-12 frames per second. Mechanical stimuli were delivered using a custom-modified No. 5 sable paint brush or serrated forceps, in a manner electronically time-stamped to image acquisition, as may be seen in FIGS. 18A-18C and further discussed below. Stimuli were delivered to each mouse in a series of trials, separated by a few minutes; each trial consisted of one or more stimuli delivered typically at intervals of several seconds. Chemical stimuli were delivered to the spinal cord using a Pipetman pipette and to the periphery using a syringe pump. Calcium responses were analysed using custom software written in Matlab (see below for more details). For calculating ΔF/F [(Fav−F0)/F0], F0 is the average of the first ten frames of the recording period.
(§3) Mice 2 months or older were sedated by i.p. injection of a mix of ketamine (100 mg/kg), xylazine (15 mg/kg), acepromazine (2.5 mg/kg in 0.9% NaCl). During surgery, body temperature was maintained at 37° C. with a heating blanket.
(§4) A dorsal laminectomy was performed mostly at spinal level L2-L4 (but occasionally at L1-L3) as described in Johannssen, et al. J. Physiol. (Lond.) 588:3397-3402 (2010), but without removing the dura. The spinal column was stabilized using Narishige STS-A spinal clamps. In addition a head-holding adaptor from Kopf (923-B Mouse Gas Anaesthesia Head Holder) was used that has installed an anaesthesia/gas mask for positioning the mouse head. In this apparatus the gas is applied through a standard hose barb positioned above the nose on the mask. The inlet fills a large gas chamber around the snout, a second hose barb below the mask is provided for vacuuming off excess, expelled gasses. The animals were maintained under continuous anaesthesia for the duration of the imaging experiments with 1-2% isofluorane or with hourly injections of the above ketamine mix. A well was built around the exposed spinal cord using Gelseal (Amersham Biosciences Corp) and Kwik Sil Adhesive (WPI). Warm imaging solution (in mM: 130 NaCl, 3 KCl, 2.5 CaCl2, 0.6 6H2O.MgCl2, 10 HEPES without Na, 1.2 NaHCO3, 10 glucose, pH7.45 with NaOH) (37° C.) was repeatedly applied to prevent drying and maintain tissue integrity, and to allow the use of immersion objectives. During imaging the body temperature of the animals was maintained at 37° C. with a heating blanket and an air-therm heater (WPI) placed inside the microscope area.
(§5) Imaging experiments were performed under a two-photon laser-scanning microscope (Ultima, Prairie Instruments Inc.). Live images were acquired at 8-12 frames per second, at depths below the pia ranging from 100 to 250 μm, using an Olympus 40×0.8 N.A. water immersion objective, at 128×128 pixel resolution with a laser tuned to 940 nm wavelength, and emission filters 525/50 nm and 595/50 nm for green and red fluorescence, respectively. Laser power was adjusted to be 20-25 mW at the focal plane (maximally 35 mW), depending on the imaging depth and level of expression of GCaMP3.0. […]

MRGPRD+ fibres = experiment: as above; parameters: species or system mouse
Method: as §1, §2, §3, §4, §5

[1] = test system: MRGPRB4+ neurons engineered to express TRPV1; experiment: Calcium imaging after peripheral injection of capsaicin in MrgprB4-Cre; Rosa26-loxP-STOP-loxP-TrpV1 mice; type: in vivo, mouse; settings: adult MrgprB4-Cre, peripheral injection (10 μl of 1 mM)
Method: α,β-methyl ATP (10 μl from 1 mM solution) and capsaicin (10 μl from 1 mM solution (10% DMSO in saline)) was injected in the ventral and dorsal hindpaw of MrgprD and MrgprB4 mice, respectively, using a syringe pump (WPI, Inc., sp200i syringe pump). The timing of the injection was controlled by the two-photon image acquisition system and associated software (Prairie View and Trigger Sync, Prairie Technologies) to link it with image acquisition.
In the case of chemical stimulation (delivered either to the spinal cord or to the periphery), typically a single trial was performed for a given mouse, due to the difficulty of maintaining the same focal plane during the period of application of the chemical to the spinal cord or the period required for diffusion of the liquid bolus delivered for peripheral injection, respectively. In these cases, therefore, the MPI ΔF/Fpeak before and during the stimulation period were calculated for multiple mice imaged using ROIs of similar size, and were compared for statistical significance (relative to pre-stimulus baseline) by repeated measures ANOVA, followed by Bonferroni-corrected post-hoc comparison of means (unless stated otherwise). The ΔF/F values in FIGS. 11B and 11E were corrected for photobleaching as described in Berry, et al. Neuron 74:530-542 (2012). […]

[2] = injection into the dorsal (hairy) skin of the hindpaw (10 μl of 1 mM), n=3
[3] = injection into the glabrous skin of the hind paw (10 μl of 1 mM), n=3
[4] = spinal application, 5 mM, mean ± range, n=2
[5] = direct application to the spinal cord, KCl 60 mM, n=3

## Nc1ncnc2c1ncn2[C@@H]1O[C@H](COP(=O)(O)CP(=O)(O)OP(=O)(O)O)[C@@H](O)[C@H]1O [α,β Me-ATP, α,β-methylene (Me) ATP]
MRGPRB4+ fibres; [2]
  MLP: 21.9 ± 12.6 s
  MPI [ΔF/F]peak: 142±0.6%
MRGPRB4+ fibres; mice expressing GCaMP3.0 but not TRPV1 in MrgprB4+ neurons, FIG. 8F
  calcium transients evoked by peripheral injection: exhibit calcium transients
MRGPRD+ fibres; MrgD mice, FIG. 7E
  calcium response after application to the spinal cord: induced a strong calcium response
MRGPRD+ fibres; [3]
  MLP: 25.7 ± 10.5 s
  MPI [ΔF/F]peak: 137±51%
MRGPRD+ fibres; [4]
  MLP: 16.3±1.3
  MPI [ΔF/F]peak: 249±54%

## COc1cc(CNC(=O)CCCC/C=C/C(C)C)ccc1O [capsaicin]
MRGPRB4+ fibres; control MrgprB4-Cre mice without TRPV1, peripheral injection
  calcium transients evoked by peripheral injection: no such signals were observed
[1]
  calcium transients evoked by peripheral injection: induced robust calcium transients

## [Cl-].[K+] [KCl]
MRGPRB4+ fibres; KCl, same field of view as the CNO test in GCaMP3.0-only mice
  activation of fibres after application to the spinal cord (positive control): robust activation
MRGPRB4+ fibres; [5]
  mean latency to peak (MLP): 9.3 ± 4.15 s
  mean percent increase in peak ΔF/F (MPI ΔF/Fpeak): 201.6±33.2%
MRGPRD+ fibres; direct application to the spinal cord, KCl 60 mM, mean ± s.e.m., n=3
  mean percent increase in peak ΔF/F (MPI ΔF/Fpeak): 222±19%
MRGPRD+ fibres; [5]
  mean latency to peak (MLP): 8.6 ± 3.6 s

— patent publication US20140178305A1, “IDENTIFICATION AND USE OF ANXIOLYTIC COMPOUNDS” (CALIFORNIA INSTITUTE OF TECHNOLOGY, priority 2012, published 2014)
